Experimental data from publication PMC9386018, “A lymphatic-absorbed multi-targeted kinase inhibitor for myelofibrosis therapy” (Nature Communications, 2022).
Where “and” joins values, the source holds several entries; their conditions need not be identical. Equal values may be shown once.

Columns and labels:
[1] = tested on: MPL^W515L mouse model of myelofibrosis; experiment: MPL^W515L MF mouse model: spleen volume by MRI (Study 1); format: in vivo; conditions: MPL^W515L mice; for Spleen volume to body weight ratio (mm3/g): individual animals
Method: Generation of the MPL^W515L mutant MF mouse model was similar to previously described methods. Briefly, female donor BALB/c mice were treated with 5-fluorouracil at 150 mg kg^−1 intraperitoneal for 5 d before harvesting bone marrow. Hematopoietic stem and progenitor cells were enriched with CD117 magnetic beads (Miltenyi Biotec), transduced with retrovirus containing MSCV-hMPL W515L-IRES-GFP, then 50,000 transduced HSPCs along with 300,000 total non-stem cells were injected intravenously into lethally irradiated female BALB/c recipients. Development of MF was evaluated by spleen volumes using MRI beginning ~14 d following bone marrow transplantation (BMT) as outlined below, continuing weekly until end of the study. Mice were separated into equal groups based on spleen size ~14–21 d post-BMT, then treated with vehicle (Maisine CC) or LP-182 at 400 mg kg^−1 daily by oral gavage for 14–28 d or until mice were euthanized using guidelines for end stage illness and humane endpoints. Untreated healthy control animals were used for experimental comparisons. Tissues were harvested and processed for flow cytometry (as described above), LCMS/MS, immuno-blotting, and histological analysis (as described in Supplementary Methods) at the defined study endpoint(s), approximately 1–2 h post-treatment with vehicle or LP-182. Briefly, blood samples were collected, transferred into K2-EDTA tubes (BD Microtainer), inverted gently to mix, then centrifuged at 2000 x g for 15 min. […] Dissection and bone marrow isolation from mouse femur and tibia was performed similar to previously described methods. Briefly, the hind limbs from mice were dissected, muscle and connective tissue removed, and bones were frozen at −80 °C. Femur and tibia were thawed separately, placed knee-end down in 18 gauge needle-pierced 0.5 mL microcentrifuge tubes nested inside 1.5 or 2 mL microcentrifuge tubes containing 1.4 mm ceramic beads (Fisher Scientific), then bone marrow was isolated by centrifugation at 10,000 x g for 1 min and processed for analysis by LCMS/MS (above; femur) or immuno-blotting (tibia). […] Soluble protein extracts were isolated by centrifugation at 15,000 x g for 15 min at 4 °C, quantified using Micro BCA protein assay (Thermo Scientific), then mixed with reducing 6X SDS-PAGE loading dye, heated for 8 min at 95 °C, and stored at −20 °C until immuno-blot analysis. Whole cell lysates were resolved by 10% SDS-PAGE, transferred to PVDF (Immobilon-P; MilliporeSigma), then membranes were blocked with 5% BSA (Equitech-Bio) in TBS containing 0.1% Tween-20 (TBST) for 1 h at room temperature with gentle orbital shaking. Membranes were incubated with primary antibodies in 5% BSA/TBST overnight at 4 °C or 5% skim milk/TBST (Lab Scientific) for 1 h at room temperature, then washed with TBST, and incubated with HRP-conjugated secondary antibodies in 5% skim milk/TBST for 1.5 h at room temperature, all with gentle platform rocking. Membranes were washed with TBST, then visualized by chemiluminescence on a BioRad ChemiDoc MP Imaging System using SuperSignal West PicoPLUS or West Femto Chemiluminescent Substrate (Thermo Scientific). Membranes were stripped using Restore PLUS Western Blot Stripping Buffer (Thermo Scientific) as per manufacturer’s instructions and re-probed with additional primary antibodies as described above. […] All antibodies were used at dilutions recommended by their specified manufacturers or optimized empirically. Additional reagents were purchased from MilliporeSigma (St. Louis, MO) unless otherwise specified. Tissues for histology were formalin-fixed, paraffin-embedded, sectioned, and stained with Hematoxylin and Eosin (H&E) to assess cellularity and tissue morphology, with Reticulin Stain Kit (Connective Tissue Stain; Abcam) to assess fibrosis, or processed for immunohistochemistry staining with GFP to assess MPL^W515L-positive cellularity. […]

[2] = tested on: ERK1/2 and pERK1/2 (pT202/pY204) in bone marrow; experiment: MPL^W515L MF mouse model: ERK1/2 and pERK1/2 immunoblot of bone marrow; format: in vivo; conditions: MPL^W515L mice, oral 400 mg kg^−1 daily, 28 d
Method: Generation of the MPL^W515L mutant MF mouse model was similar to previously described methods. Briefly, female donor BALB/c mice were treated with 5-fluorouracil at 150 mg kg^−1 intraperitoneal for 5 d before harvesting bone marrow. Hematopoietic stem and progenitor cells were enriched with CD117 magnetic beads (Miltenyi Biotec), transduced with retrovirus containing MSCV-hMPL W515L-IRES-GFP, then 50,000 transduced HSPCs along with 300,000 total non-stem cells were injected intravenously into lethally irradiated female BALB/c recipients. Development of MF was evaluated by spleen volumes using MRI beginning ~14 d following bone marrow transplantation (BMT) as outlined below, continuing weekly until end of the study. Mice were separated into equal groups based on spleen size ~14–21 d post-BMT, then treated with vehicle (Maisine CC) or LP-182 at 400 mg kg^−1 daily by oral gavage for 14–28 d or until mice were euthanized using guidelines for end stage illness and humane endpoints. Untreated healthy control animals were used for experimental comparisons. […] Soluble protein extracts were isolated by centrifugation at 15,000 x g for 15 min at 4 °C, quantified using Micro BCA protein assay (Thermo Scientific), then mixed with reducing 6X SDS-PAGE loading dye, heated for 8 min at 95 °C, and stored at −20 °C until immuno-blot analysis. […]

SMILES: O=C(NOCCOCCOCCOCCC(=O)N1CCN(c2cnc3ccc(-c4cnc(Cl)c(NS(=O)(=O)c5ccc(F)cc5)c4)cc3n2)CC1)c1ccc(F)c(F)c1Nc1ccc(I)cc1F [LP-182, N-(2-(2-(2-(3-(4-(7-(6-chloro-5-((4-fluorophenyl)sulfonamido)pyridin-3-yl)quinoxalin-2-yl)piperazin-1-yl)-3-oxopropoxy)ethoxy)ethoxy)ethoxy)-3,4-difluoro-2-((2-fluoro-4-iodophenyl)amino)benzamide]
- Spleen volume to body weight ratio (mm3/g) ([1]; LP-182 group, treatment length 0 d (baseline)): 31.0875 mm3/g and 17.4312 mm3/g and 19.0791 mm3/g and 34.919 mm3/g and 29.5281 mm3/g
- Spleen volume to body weight ratio (mm3/g) ([1]; LP-182 group, treatment length -7 d (before treatment)): 15.1103 mm3/g and 6.53 mm3/g and 9.708 mm3/g and 8.386 mm3/g and 11.4368 mm3/g
- reduction of spleen volume compared to vehicle ([1]; oral 400 mg kg^−1 daily, after 14 d): ~ 35%
- Spleen volume to body weight ratio (mm3/g) ([1]; oral 400 mg kg^−1 daily, treatment length 7 d): 26.2397 mm3/g and 11.9227 mm3/g and 23.2289 mm3/g and 24.8013 mm3/g and 24.121 mm3/g
- Spleen volume to body weight ratio (mm3/g) ([1]; oral 400 mg kg^−1 daily, treatment length 14 d): 25.0148 mm3/g and 4.765 mm3/g and 27.3514 mm3/g and 25.4021 mm3/g and 32.6974 mm3/g
- Spleen volume to body weight ratio (mm3/g) ([1]; oral 400 mg kg^−1 daily, treatment length 21 d): 28.0008 mm3/g and 4.203 mm3/g and 24.753 mm3/g and 31.0963 mm3/g and 27.5586 mm3/g
- levels and activation of ERK1/2 in bone marrow [2]: attenuate downstream MPL^W515L signal transduction
